These results are taken from BindingDB's records for doi:10.1021/jm00051a006 (University of Alberta, 1995).

Each structure is given as a SMILES string.

A short description of this assay: Effective concentration in vitro against HIV-1-infected CEM cells relative to uninfected untreated controls.
`CO[C@@H]1N(C2CC(N=[N+]=[N-])C(CO)O2)C(=O)NC(=O)[C@@]1(C)Br` (stereo partly specified): the half-maximal effective concentration (EC50) (in general, the concentration needed to bring the measured effect to its halfway point) worked out at 280 nM. This lies in the sub-micromolar range. Next, `CC1(Cl)C(=O)NC(=O)N([C@H]2C[C@H](N=[N+]=[N-])[C@@H](CO)O2)C1N=[N+]=[N-]` (stereo partly specified): 1490 nM; `CO[C@@H]1N(C2CC(N=[N+]=[N-])C(CO)O2)C(=O)NC(=O)[C@@]1(C)I` (stereo partly specified): 5.15 nM. Next, `CC1(Br)C(=O)NC(=O)N([C@H]2C[C@H](N=[N+]=[N-])[C@@H](CO)O2)C1N=[N+]=[N-]` (stereo partly specified): 200000 nM; `CCCCCCCCO[C@H]1N(C2CC(N=[N+]=[N-])C(CO)O2)C(=O)NC(=O)[C@]1(C)Br` (stereo partly specified): 865 nM; `CO[C@H]1N([C@H]2C[C@H](N=[N+]=[N-])[C@@H](CO)O2)C(=O)NC(=O)C1(C)Cl` (stereo partly specified): 5790 nM. The value for `CO[C@H]1N(C2CC(N=[N+]=[N-])C(CO)O2)C(=O)NC(=O)[C@]1(C)Br` (stereo partly specified) was 3.27 nM; that for `CCO[C@H]1N(C2CC(N=[N+]=[N-])C(CO)O2)C(=O)NC(=O)[C@]1(C)Br` (stereo partly specified) was 6.75 nM. As to `CCO[C@@H]1N(C2CC(N=[N+]=[N-])C(CO)O2)C(=O)NC(=O)[C@@]1(C)Br` (stereo partly specified), the EC50 turned out to be 23.7 nM. In the case of `CO[C@H]1N(C2CC(N=[N+]=[N-])C(CO)O2)C(=O)NC(=O)[C@]1(C)I` (stereo partly specified), the EC50 was found to be 3.17 nM.

In the case of `CC(C)O[C@H]1N(C2CC(N=[N+]=[N-])C(CO)O2)C(=O)NC(=O)[C@]1(C)Br` (stereo partly specified), the EC50 came to 5720 nM.
